According to US20090123581A1, “COLLAGEN CROSS-LINKING AGENTS ON DENTAL RESTORATIVE TREATMENT AND PREVENTIVE DENTISTRY” (THE BOARD OF TRUSTEES OF THE UNIVERSITY OF ILLINOIS, priority 2006, published 2009):

Key:
[1] = Microtensile bond strength of adhesive restoration to caries-affected dentin (Example 2); design: species or system human; details: caries-affected demineralized dentin; 5% glutaraldehyde for 5 minutes; versus control
Description: Effect of an exogenous collagen cross-linking agent on dentin bonding: In order to analyze the contribution of exogenous collagen cross-linking to sound and caries-affected dentin bonding, demineralized dentin surfaces were treated with 5% glutaraldehyde and the restored specimens were subjected to microtensile bond strength testing.
Specimen preparation: Six human molars stored frozen (−20° C.) for less then one month were used. The teeth presented occlusal caries in which enamel was visually intact. The teeth were thawed, cleaned of adhering soft tissues, and the occlusal surfaces were ground flat with #320 and #600 grit Silicon Carbide (Sic) papers under running water to remove the enamel and expose flat middle dentin, respectively. […]
Microtensile bond test (MTB): After 24 hrs in water at 37° C., the teeth were sectioned into 0.7±0.2 mm thick slabs, and the interfaces trimmed to an hourglass shape using a fine diamond bur to produce a cross-sectional area of 1 mm^2. The thickness of the slabs and the width of the trimmed surface were measured using a digital caliper (Fisher Scientific, New Jersey, N.J.) and specimens in sound and caries-affected dentin were obtained. […] MPa were determined by dividing the fracture load by the cross-sectional area of the interface.

[2] = Modulus of elasticity of demineralized dentin, 3-point bend method (Example 3); design: species or system human; details: for modulus of elasticity, pooled data: pooled over all times (baseline to 4 h)
Text: Twelve sound extracted human molars were used. The teeth were thawed, cleaned of adhering soft tissues, and the occlusal surfaces were ground flat with #320 grit silicon carbide abrasive paper under running water to remove part of the enamel (Buehler, Lake Bluff, Ill.). Flattening of the occlusal surface by cusp removal enables more accurate sectioning of samples. The root portion was sectioned 1 mm below the CEJ and discarded. Teeth were sectioned into 0.5±0.1 mm thick beams (n=5 beams per tooth) in the mesio-buccal direction with a slow speed diamond wafering blade (Buehler-Series 15LC Diamond) under constant water irrigation (FIG. 1A). The sections were further trimmed using a cylindrical diamond bur (#557D, Brasseler, Savannah, Ga.) in a high speed handpiece, to a final rectangular dimension of 0.5 mm thickness×1.7 mm width×7.0 mm length. A dimple was made at one end of the surfaces to allow for repeated measurements to be performed on the same surface (FIG. 1A).
Specimens were immersed in 10% phosphoric acid solution (LabChem Inc, Pittsburgh, Pa.) for a period of 5 hours and thoroughly rinsed with distilled water for 10 minutes. X-rays were taken of the specimens to verify complete tissue demineralization. Demineralized specimens were randomly divided into the following groups according to dentin treatment (FIG. 1B): 2.5% glutaraldehyde (Fisher Biotech, Fair Lawn, N.J.) in PBS (pH: 7.4); 5% glutaraldehyde in PBS (pH: 7.4); 25% glutaraldehyde in PBS (pH: 7.4); 0.65% grape seed extract (Mega-Natural—Polyphenolics Ind., Madera, Calif.) in PBS (pH: 7.4); and 6.5% grape seed extract in PBS solution (pH: 7.4). Specimens were immersed in water for baseline measurements and then in their respective solutions for 10 min, 30 min, 1 hour, 2 hour and 4 hours of cumulative exposure (FIG. 1C).
The 3-point bend method was selected for evaluation of the modulus of elasticity. The advantages of this method are that it requires no gripping of these small specimens and that it is non-destructive and therefore permits repeated measurements to be performed (FIG. 1C). An aluminum alloy fixture with a 5.0 mm span between supports was glued to the bottom of a glass Petri dish. Specimens were tested in compression while immersed in liquid using a Vitrodyne testing machine (Model V-1000, Chatillon, Greensboro, N.C.) with a 50 grams load cell at crosshead speed of 0.5 mm/min. Load-displacement curves were converted to stress-strain curves and the apparent modulus of elasticity calculated at 3% strain. Displacement (D) during compression was calculated at a maximum strain of 3% using the following formula (Nielsen L E. Mechanical properties of polymers and composites. Vol. 1, New York: Marcel Dekker Inc., 1974, p. 45.):
Where ε is strain, L is support span and T is thickness of the specimen.
Then the modulus of elasticity (É) of the specimens was calculated using the following formula (Nielsen, 1974): […]
Where P is the maximum load, L is the support span, D is the displacement, b width of the specimen and T is the thickness of the specimen.
Baseline measurements were obtained with specimens immersed in distilled water. All experimental periods were evaluated with the samples immersed in their respective cross-linking agents. A total of 10-12 specimens were evaluated per group. The data were collected and statistically analyzed using a General Linear Model SPSS program for ANOVA repeated measurements at a 95% confidence interval.

Q: With `O=CCCCC=O` [GD, glutaraldehyde] as the compound, how does the “increase in the bond strength values” [1] read?
A: The value was 35%.

Q: What about the modulus of elasticity ([2]; 2.5% GD group, Baseline (in distilled water, before exposure)) of the same compound?
A: Its modulus of elasticity is 4.82 MPa.

Q: What about the modulus of elasticity ([2]; 2.5% GD in PBS pH 7.4, 10 min cumulative exposure) of the same compound?
A: Its modulus of elasticity is 20.45 MPa.

Q: And the modulus of elasticity ([2]; 2.5% GD in PBS pH 7.4, 30 min cumulative exposure)?
A: The modulus of elasticity was 30.22 MPa.

Q: And the modulus of elasticity ([2]; 2.5% GD in PBS pH 7.4, 1 h cumulative exposure)?
A: Its modulus of elasticity is 32.10 MPa.

Q: And the modulus of elasticity ([2]; 2.5% GD in PBS pH 7.4, 2 h cumulative exposure)?
A: The modulus of elasticity was 34.44 MPa.

Q: What about the modulus of elasticity ([2]; 2.5% GD in PBS pH 7.4, 4 h cumulative exposure) of the same compound?
A: Its modulus of elasticity is 34.86 MPa.

Q: And the “modulus of elasticity, pooled data” value ([2]; 2.5% GD)?
A: The value was 26.15 A MPa.

Q: What about the modulus of elasticity ([2]; 5% GD group, Baseline (in distilled water, before exposure)) of the same compound?
A: The modulus of elasticity was 5.97 MPa.

Q: What about the modulus of elasticity ([2]; 5% GD in PBS pH 7.4, 10 min cumulative exposure) of the same compound?
A: Its modulus of elasticity is 18.37 MPa.

Q: And the modulus of elasticity ([2]; 5% GD in PBS pH 7.4, 30 min cumulative exposure)?
A: Its modulus of elasticity is 27.25 MPa.

Q: And the modulus of elasticity ([2]; 5% GD in PBS pH 7.4, 1 h cumulative exposure)?
A: Its modulus of elasticity is 29.77 MPa.

Q: And the modulus of elasticity ([2]; 5% GD in PBS pH 7.4, 2 h cumulative exposure)?
A: The modulus of elasticity was 33.08 MPa.

Q: And the modulus of elasticity ([2]; 5% GD in PBS pH 7.4, 4 h cumulative exposure)?
A: Its modulus of elasticity is 38.14 MPa.

Q: And the “modulus of elasticity, pooled data” value ([2]; 5% GD)?
A: Its value is 25.43 A MPa.

Q: What about the modulus of elasticity ([2]; 25% GD group, Baseline (in distilled water, before exposure)) of the same compound?
A: The modulus of elasticity was 5.32 MPa.

Q: And the modulus of elasticity ([2]; 25% GD in PBS pH 7.4, 10 min cumulative exposure)?
A: The modulus of elasticity was 32.26 MPa.

Q: What about the modulus of elasticity ([2]; 25% GD in PBS pH 7.4, 30 min cumulative exposure) of the same compound?
A: The modulus of elasticity was 37.83 MPa.

Q: What about the modulus of elasticity ([2]; 25% GD in PBS pH 7.4, 1 h cumulative exposure) of the same compound?
A: The modulus of elasticity was 41.31 MPa.

Q: And the modulus of elasticity ([2]; 25% GD in PBS pH 7.4, 2 h cumulative exposure)?
A: The modulus of elasticity was 41.21 MPa.

Q: What about the modulus of elasticity ([2]; 25% GD in PBS pH 7.4, 4 h cumulative exposure) of the same compound?
A: The modulus of elasticity was 42.80 MPa.

Q: And the “modulus of elasticity, pooled data” value ([2]; 25% GD)?
A: Its value is 33.45 B MPa.
